# According to patent publication US11466017B2, “Heterocyclic inhibitors of PTPN11” (priority 2011, dated 2022):
# Tested on: BT474 human breast carcinomas cell line
# Assay: In vivo tumor model, BT474 (HER2+) xenograft
# Conditions: BT474 xenograft in CB-17/SCID mice, 100 mg/kg once per day oral gavage, 5 days on/2 days off, 4 weeks
# Excerpt: Xenografts were initiated with BT474 human breast carcinomas cell line and maintained by serial subcutaneous transplantation in CB-17/SCID mice (Charles River). On the day of tumor implant, each test mouse received a 1 mm^3 BT474 fragment implanted subcutaneously in the right flank, and tumor growth was monitored as the average size approached the target range of 100 to 150 mm3. About three weeks post-implantation, the animals were randomized and grouped based on tumor volume and mouse body weight. […] Tumors were measured in two dimensions using calipers, and volume was calculated using the formula: Tumor Volume (mm^3)=w^2× ½.
compound,measurement,value
"CC1(N)CCN(c2cnc3c(-c4cccc(Cl)c4Cl)n[nH]c3n2)CC1 [Example 1, 1-(3-(2,3-dichlorophenyl)-1H-pyrazolo[3,4-b]pyrazin-6-yl)-4-methylpiperidin-4-amine]",tolerability (body weight),tolerated dose
same,tumor growth (tumor volume),significant suppression of tumor growth
